According to ChEMBL document CHEMBL1201862, “PubChem BioAssay data set” (2004):
Calls of active or inactive are those of the source.

Assays:
Type in all cases: functional
[1] = target: Voltage-dependent T-type calcium channel subunit alpha-1H (Homo sapiens, UniProt O95180);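 also: channel activity triggered by adding a high calcium stimulation buffer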
[2] = target: T1, Heat shock factor protein 1 (Mus musculus, UniProt P38532); assay: decrease of HSF1-responsive luciferase luminescence – cell-based, NIH3T3, dose retest, confirmation (AID 2382);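 also: NIH3T3 fibroblasts with HSF1-driven luciferase reporter stressed by proteasome inhibitor MG132; luminescence from HSF1-driven luciferase expression after 8 hours of MG132 stress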
T1 sequence (P38532 whole entry): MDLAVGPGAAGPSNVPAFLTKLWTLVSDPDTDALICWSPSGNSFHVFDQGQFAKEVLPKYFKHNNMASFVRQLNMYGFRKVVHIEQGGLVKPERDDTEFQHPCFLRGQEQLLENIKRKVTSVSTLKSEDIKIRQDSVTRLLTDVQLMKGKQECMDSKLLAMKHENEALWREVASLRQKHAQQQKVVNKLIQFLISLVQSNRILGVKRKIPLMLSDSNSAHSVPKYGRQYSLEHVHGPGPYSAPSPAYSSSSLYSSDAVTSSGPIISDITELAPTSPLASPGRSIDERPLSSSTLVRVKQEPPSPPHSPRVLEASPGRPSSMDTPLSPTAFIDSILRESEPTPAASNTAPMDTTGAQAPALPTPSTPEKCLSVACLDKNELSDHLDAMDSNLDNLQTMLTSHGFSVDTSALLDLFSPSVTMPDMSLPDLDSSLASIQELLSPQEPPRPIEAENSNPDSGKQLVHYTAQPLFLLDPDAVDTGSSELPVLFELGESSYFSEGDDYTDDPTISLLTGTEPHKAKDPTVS

[3] = non-specific 3'UTR reporter inhibition in Clone20-Shn3RL – cell-based, Renilla luciferase, cherry-picked, counter-screen for Shn3 inhibitor project, dose response (AID 624133)
[4] = reduction of Shn3 3'UTR-driven luciferase in osteoblasts – cell-based, Clone20 osteoblasts, firefly luciferase, cherry-picked, dose response (AID 624132);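 also: firefly luciferase luminescence from reporter carrying the Shn3 3'UTR in osteoblasts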
[5] = test system: INS1; assay: INS-1E survival protection against cytokine death – cell-based, luminescence, retest, dose response (AID 449756); settings: Rattus norvegicus;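 also: cell death triggered by IL-1 beta plus TNF-alpha plus IFN-gamma mixture; protective hits raise ATP signal compared with cytokine alone wells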
[6] = target: T2, Calpain-2 catalytic subunit (Sus scrofa, UniProt P43367); assay: m-calpain protease blockers, concentration series – biochemical, fluorogenic peptide substrate, dose response (AID 1420)
T2 sequence (P43367 whole entry): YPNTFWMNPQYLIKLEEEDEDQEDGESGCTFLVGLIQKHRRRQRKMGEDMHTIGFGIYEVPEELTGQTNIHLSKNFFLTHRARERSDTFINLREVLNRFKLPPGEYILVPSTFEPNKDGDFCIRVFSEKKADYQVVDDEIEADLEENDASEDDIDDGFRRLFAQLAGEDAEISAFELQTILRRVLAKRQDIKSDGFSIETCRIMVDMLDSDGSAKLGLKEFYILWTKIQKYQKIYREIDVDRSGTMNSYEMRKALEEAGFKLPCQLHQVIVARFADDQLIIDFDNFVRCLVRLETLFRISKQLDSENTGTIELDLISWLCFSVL

[7] = viability of PTEN-deleted HCT116 cells – cell-based, HCT116 PTEN knockout, dose response (AID 1047);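 also: HCT116 colon tumor cells with PTEN knocked out; cells exposed to compound for 60 hours before readout; potency for loss of cell viability measured by luminescence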
[8] = viability of HCT116 lacking mutant beta-catenin – cell-based, human colon tumor, dose response (AID 1045);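 also: HCT116 colon tumor cells with beta catenin knocked out; cells exposed to compound for 60 hours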
[9] = target: T3, Polyadenylate-binding protein 1 (Homo sapiens, UniProt P11940); assay: MLLE domain peptide-binding blockers, IC50 – biochemical, fluorescence polarization, FITC-PAM2 peptide, dose response (AID 602259); settings: read-out: IC50_Mean
T3 sequence (P11940 whole entry, the tested form may be a part): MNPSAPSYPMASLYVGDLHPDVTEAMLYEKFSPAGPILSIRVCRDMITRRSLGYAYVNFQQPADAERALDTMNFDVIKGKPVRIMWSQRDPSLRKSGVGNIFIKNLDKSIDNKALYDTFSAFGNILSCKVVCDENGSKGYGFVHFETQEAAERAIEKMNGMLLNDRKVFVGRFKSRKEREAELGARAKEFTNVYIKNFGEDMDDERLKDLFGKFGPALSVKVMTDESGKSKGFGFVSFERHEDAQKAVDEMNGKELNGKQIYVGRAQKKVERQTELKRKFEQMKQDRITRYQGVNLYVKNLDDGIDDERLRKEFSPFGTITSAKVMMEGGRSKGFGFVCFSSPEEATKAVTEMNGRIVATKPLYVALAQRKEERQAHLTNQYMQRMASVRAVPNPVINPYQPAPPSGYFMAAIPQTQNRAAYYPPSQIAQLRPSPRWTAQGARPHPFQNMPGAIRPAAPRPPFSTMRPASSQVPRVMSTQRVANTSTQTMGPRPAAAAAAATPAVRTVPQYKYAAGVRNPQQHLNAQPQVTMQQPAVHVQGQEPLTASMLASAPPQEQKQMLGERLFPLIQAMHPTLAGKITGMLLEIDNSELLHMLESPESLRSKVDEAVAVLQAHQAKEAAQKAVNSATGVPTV

[10] = target: T3, Polyadenylate-binding protein 1; assay: MLLE binding blockers, Cy5 peptide tracer – biochemical, fluorescence polarization, Cy5-PAM2 peptide, secondary, miRNA deadenylation inhibitor project, dose response (AID 602260); settings: read-out: IC50_Mean
[11] = viability of uninfected HEp-2 cells – cell-based, HTS, cytotoxicity control for RSV inhibitor project, dose response (AID 2410); settings: human respiratory syncytial virus
[12] = Luminescence Cell-Based Dose Response HTS to Identify Activators of Luciferase Translation or Activity in H4 […] Cells. [Related pubchem assays: 1829 (Project Summary), 1814 (Primary HTS)]
[13] = Luminescence Cell-Based Dose Confirmation HTS to Identify Activators of 5'UTR Stem-Loop Driven Alpha-Synuclein mRNA Translation in H4 Neuroglioblastoma Cells. [Related pubchem assays: 1829 (Project Summary), 1814 (Primary HTS)]
[14] = test system: H4; assay: Luminescence Cell-Based Dose Response HTS to Identify Activators of 5'UTR Stem-Loop Driven Prion Protein mRNA Translation in H4 Neuroglioblastoma Cells. [Related pubchem assays: 1829 (Project Summary), 1814 (Primary HTS)]; settings: Homo sapiens
[15] = target: T4, Protein RecA (Mycobacterium tuberculosis, UniProt P9WHJ3); assay: Fluorescence Cell-Free Homogeneous Dose Retest to Identify Inhibitors of RecA-Intein Splicing Activity. [Related pubchem assays (depositor defined):AID2097, AID2223, AID489010, AID492950]
T4 sequence (P9WHJ3 whole entry): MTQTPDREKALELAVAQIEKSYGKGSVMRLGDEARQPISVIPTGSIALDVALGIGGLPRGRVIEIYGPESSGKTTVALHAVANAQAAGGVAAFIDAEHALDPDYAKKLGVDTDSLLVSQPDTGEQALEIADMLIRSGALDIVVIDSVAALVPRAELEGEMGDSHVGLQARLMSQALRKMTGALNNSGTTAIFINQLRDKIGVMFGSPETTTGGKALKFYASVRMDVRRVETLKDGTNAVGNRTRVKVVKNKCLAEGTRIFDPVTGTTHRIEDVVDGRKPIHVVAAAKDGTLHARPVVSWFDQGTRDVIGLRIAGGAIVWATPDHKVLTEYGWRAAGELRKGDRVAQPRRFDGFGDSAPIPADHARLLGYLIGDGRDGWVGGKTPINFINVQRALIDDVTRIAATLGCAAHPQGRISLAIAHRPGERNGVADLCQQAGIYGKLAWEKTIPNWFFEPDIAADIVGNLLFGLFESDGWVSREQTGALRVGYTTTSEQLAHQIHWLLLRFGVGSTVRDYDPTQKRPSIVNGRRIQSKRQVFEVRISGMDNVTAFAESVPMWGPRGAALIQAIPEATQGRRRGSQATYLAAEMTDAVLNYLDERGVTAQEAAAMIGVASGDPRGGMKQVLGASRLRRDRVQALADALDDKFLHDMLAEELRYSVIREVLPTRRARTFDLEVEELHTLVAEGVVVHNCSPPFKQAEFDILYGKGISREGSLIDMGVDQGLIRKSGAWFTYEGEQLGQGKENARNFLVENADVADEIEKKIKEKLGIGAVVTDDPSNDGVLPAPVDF

[16] = target: T5, Replicative DNA helicase DnaB (Mycobacterium tuberculosis, UniProt P9WMR3); assay: DnaB intein splicing inhibitors, dose response, biochemical, cell-free fluorescence (AID 449749)
T5 sequence (P9WMR3 whole entry): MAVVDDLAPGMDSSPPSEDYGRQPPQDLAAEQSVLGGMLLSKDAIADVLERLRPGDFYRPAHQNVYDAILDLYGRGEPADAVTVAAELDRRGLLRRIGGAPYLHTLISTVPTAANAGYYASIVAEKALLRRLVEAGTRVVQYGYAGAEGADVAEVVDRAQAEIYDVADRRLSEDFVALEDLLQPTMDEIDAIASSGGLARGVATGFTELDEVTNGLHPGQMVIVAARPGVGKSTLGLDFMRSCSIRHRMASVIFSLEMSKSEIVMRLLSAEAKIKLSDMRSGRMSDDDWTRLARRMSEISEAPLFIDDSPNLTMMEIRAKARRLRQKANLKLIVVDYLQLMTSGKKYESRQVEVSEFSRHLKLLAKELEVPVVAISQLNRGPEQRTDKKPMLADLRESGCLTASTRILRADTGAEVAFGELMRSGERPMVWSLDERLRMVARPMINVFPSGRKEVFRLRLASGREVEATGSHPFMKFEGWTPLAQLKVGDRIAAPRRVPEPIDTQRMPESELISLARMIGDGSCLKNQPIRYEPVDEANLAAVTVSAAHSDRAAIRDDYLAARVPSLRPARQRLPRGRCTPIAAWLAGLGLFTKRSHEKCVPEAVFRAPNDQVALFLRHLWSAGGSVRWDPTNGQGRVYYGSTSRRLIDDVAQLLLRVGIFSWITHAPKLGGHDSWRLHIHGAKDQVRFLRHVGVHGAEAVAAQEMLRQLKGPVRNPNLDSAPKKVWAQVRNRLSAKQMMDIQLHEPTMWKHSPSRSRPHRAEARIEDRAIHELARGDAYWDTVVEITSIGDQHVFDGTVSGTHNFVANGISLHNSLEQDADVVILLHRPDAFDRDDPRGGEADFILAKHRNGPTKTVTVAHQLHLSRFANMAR

Sequence of Voltage-dependent T-type calcium channel subunit alpha-1H (O95180 whole entry): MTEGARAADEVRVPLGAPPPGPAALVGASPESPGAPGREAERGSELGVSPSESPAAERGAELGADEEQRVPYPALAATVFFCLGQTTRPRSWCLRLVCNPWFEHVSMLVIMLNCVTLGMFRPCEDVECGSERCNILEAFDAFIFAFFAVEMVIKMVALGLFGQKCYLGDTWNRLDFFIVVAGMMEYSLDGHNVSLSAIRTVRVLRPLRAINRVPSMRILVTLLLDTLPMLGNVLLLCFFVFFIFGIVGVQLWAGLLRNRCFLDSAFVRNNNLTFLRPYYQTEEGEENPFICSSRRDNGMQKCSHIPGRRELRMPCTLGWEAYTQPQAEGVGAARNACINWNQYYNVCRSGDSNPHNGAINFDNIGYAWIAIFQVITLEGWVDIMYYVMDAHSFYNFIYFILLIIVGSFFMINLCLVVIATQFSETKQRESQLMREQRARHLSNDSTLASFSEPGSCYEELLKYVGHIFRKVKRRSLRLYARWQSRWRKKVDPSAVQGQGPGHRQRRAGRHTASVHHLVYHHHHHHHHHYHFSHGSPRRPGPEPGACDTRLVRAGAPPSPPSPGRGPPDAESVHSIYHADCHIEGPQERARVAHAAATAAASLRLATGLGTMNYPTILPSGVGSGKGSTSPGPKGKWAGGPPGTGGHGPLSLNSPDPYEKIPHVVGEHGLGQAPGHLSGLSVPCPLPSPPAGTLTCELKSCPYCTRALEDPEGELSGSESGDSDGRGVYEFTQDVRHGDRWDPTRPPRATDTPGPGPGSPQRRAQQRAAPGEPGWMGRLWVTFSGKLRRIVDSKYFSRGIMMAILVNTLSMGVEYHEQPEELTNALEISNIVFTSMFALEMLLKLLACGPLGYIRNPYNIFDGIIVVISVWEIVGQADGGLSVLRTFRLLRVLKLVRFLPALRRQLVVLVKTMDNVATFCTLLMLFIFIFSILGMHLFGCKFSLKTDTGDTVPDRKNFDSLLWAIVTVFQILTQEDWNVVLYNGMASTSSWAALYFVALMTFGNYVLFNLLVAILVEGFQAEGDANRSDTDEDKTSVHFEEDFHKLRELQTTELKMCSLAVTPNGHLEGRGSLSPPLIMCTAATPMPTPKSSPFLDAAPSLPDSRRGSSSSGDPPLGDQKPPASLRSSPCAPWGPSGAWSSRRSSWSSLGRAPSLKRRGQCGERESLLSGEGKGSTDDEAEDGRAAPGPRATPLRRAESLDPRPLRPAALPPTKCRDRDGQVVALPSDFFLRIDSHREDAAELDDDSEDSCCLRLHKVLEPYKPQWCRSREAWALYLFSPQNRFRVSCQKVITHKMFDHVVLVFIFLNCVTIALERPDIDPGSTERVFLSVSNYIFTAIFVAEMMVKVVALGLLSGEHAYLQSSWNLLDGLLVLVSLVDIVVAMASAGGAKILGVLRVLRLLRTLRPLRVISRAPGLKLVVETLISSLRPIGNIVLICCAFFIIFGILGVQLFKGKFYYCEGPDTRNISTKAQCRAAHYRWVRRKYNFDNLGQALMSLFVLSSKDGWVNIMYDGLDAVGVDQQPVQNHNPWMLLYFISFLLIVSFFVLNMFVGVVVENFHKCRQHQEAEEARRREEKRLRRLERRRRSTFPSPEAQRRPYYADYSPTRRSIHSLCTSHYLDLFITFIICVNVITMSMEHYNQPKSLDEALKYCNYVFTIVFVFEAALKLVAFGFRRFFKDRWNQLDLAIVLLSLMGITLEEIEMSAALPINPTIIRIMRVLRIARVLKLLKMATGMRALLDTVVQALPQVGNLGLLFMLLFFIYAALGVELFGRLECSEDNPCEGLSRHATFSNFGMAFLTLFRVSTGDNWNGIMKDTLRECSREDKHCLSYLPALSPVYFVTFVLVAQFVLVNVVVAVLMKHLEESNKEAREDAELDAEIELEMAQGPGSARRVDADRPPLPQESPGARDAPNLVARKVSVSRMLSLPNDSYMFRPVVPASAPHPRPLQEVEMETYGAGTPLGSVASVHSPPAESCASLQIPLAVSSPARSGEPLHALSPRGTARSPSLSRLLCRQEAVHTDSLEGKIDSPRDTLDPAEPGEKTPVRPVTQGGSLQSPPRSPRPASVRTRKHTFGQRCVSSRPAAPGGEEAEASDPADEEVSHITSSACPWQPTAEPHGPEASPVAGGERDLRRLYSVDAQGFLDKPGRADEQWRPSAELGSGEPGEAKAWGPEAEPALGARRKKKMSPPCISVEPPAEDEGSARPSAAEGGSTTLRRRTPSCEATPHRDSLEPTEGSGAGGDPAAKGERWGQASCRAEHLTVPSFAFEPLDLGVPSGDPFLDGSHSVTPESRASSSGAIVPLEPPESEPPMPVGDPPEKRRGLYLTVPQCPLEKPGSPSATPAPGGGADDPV

For `c1ccc(-c2noc(CSc3nnc(Cc4cccs4)n3-c3ccccc3)n2)cc1`, which EC50 [1] is on record?
The EC50 was 4.16 µM (active).

With `O=C(C1CCCN(S(=O)(=O)c2ccc(Cl)cc2)C1)N(Cc1cccs1)C1CC1` (centres undefined) as the compound, how does the EC50 [1] read?
Its EC50 is 6.78 µM (active).

What about the EC50 [2] of the same compound?
The EC50 was > 195 µM (not active).

What does the source list for `CN1/C(=C\C(=O)CN2C(=O)NC3(CCCCCC3)C2=O)C(C)(C)c2ccccc21`?
AC50 [3]: 12.3 µM (active); AC50 [4]: 2.66 µM (active); EC50 [1]: 27.4 µM (active); AC50 [5]: 4.56 µM (active)

With `O=C(c1cc2sccc2n1Cc1ccccc1)N1CCCc2ccccc21` as the compound, how does the EC50 [1] read?
Its EC50 is 5.98 µM (active).

Which results are given for `Cc1ccccc1Cn1c(=O)n(CC2CCC(C(=O)NCCc3ccccc3)CC2)c(=O)c2ccccc21` (centres undefined)?
IC50 [6]: 20.7 µM (not active); EC50 [7]: 13.3 µM (active); EC50 [8]: 17 µM (active)

For `N#CCCN(C(=O)CSc1ccc2c(c1)OCCO2)c1ccccc1`, which IC50 [9] is on record?
Its IC50 is > 66 µM (inactive).

And the IC50 [10]?
The IC50 was > 66 µM (inactive).

Which EC50 [1] does the source give for `CCCc1nc2ccccc2n1CCOc1ccccc1` here?
The EC50 was 8.61 µM (active).

With `COc1cccc(Nc2nc(N)c([N+](=O)[O-])c(NCc3ccco3)n2)c1` as the compound, how does the CC50 [11] read?
The CC50 was 15.8 µM (active).

And the IC50 [6]?
Its IC50 is 7.89 µM (not active).

For `Cn1c(CSc2nc3ccccc3s2)nc2ccccc21`, which EC50 [12] is on record?
The EC50 was 2.94 µM (active).

What about the EC50 [1] of the same compound?
The EC50 was 17.4 µM (active).

And the EC50 [13]?
Its EC50 is 43.2 µM (active).

And the EC50 [14]?
The EC50 was 19.9 µM (active).

For `CC(=O)c1c(Cl)nc2cccc3c2c1-c1ccccc1C3=O`, which EC50 [15] is on record?
The EC50 was 0.297 µM (inconclusive).

What about the IC50 [9] of the same compound?
Its IC50 is 55.6 µM (inactive).

What about the AC50 [16] of the same compound?
Its AC50 is > 380 µM (inactive).

And the IC50 [10]?
Its IC50 is > 66 µM (inactive).
